12 compounds from ChEMBL document CHEMBL5584241, “Discovery of new anti-diabetic potential agents based on paracetamol incorporating sulfa-drugs: Design, synthesis, α-amylase, and α-glucosidase inhibitors with molecular docking simulation” (Eur J Med Chem, 2024) can be followed below.

For assay [1], the target named is T1, Alpha amylase (Homo sapiens, UniProt P0DUB6).
T1 sequence (P0DUB6 whole entry): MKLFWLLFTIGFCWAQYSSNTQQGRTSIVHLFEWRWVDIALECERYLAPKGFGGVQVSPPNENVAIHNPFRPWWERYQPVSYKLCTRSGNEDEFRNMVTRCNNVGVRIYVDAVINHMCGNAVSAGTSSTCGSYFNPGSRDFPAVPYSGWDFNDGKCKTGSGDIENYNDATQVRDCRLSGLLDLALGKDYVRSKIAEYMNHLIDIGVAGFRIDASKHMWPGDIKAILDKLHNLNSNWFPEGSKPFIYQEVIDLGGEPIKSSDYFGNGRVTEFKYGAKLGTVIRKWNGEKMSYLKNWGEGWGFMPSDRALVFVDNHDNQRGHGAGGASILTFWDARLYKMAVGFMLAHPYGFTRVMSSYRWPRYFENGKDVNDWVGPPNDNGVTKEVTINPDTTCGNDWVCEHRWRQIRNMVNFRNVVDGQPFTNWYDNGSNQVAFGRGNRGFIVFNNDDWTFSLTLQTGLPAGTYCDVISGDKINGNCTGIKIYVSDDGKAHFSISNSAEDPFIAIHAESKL
The experiment in a line: Inhibition of alpha-amylase (unknown origin). It counts as protein assay.

The species named for assay [2] is Homo sapiens. The experiment in a line: Inhibition of alpha-glucosidase (unknown origin) at 100 ug/ml using p-nitrophenyl-alpha-D-glucopyranoside as substrate incubated for 15 to 25 mins by spectrophotometric analysis relative to control. As to conditions: dose 100.0 µg/ml, time 15-25 min.
Assay [3] in a line: Inhibition of alpha-glucosidase (unknown origin) using p-nitrophenyl-alpha-D-glucopyranoside as substrate incubated for 15 to 25 mins by spectrophotometric analysis. Also on record: species or system Homo sapiens.
Assay [4] has as its target Maltase-glucoamylase (Homo sapiens, UniProt O43451). As to the kind of experiment: Inhibition of intestinal alpha-glucosidase (unknown origin) using p-nitrophenyl-alpha-D-glucopyranoside as substrate preincubated for 5 mins followed by substrate addition and measured after 5 mins by spectrophotometric analysis.
Assay [5] can be described thus: Inhibition of alpha-glucosidase (unknown origin). Also on record: species or system Homo sapiens.

Sequence of Maltase-glucoamylase (O43451 whole entry): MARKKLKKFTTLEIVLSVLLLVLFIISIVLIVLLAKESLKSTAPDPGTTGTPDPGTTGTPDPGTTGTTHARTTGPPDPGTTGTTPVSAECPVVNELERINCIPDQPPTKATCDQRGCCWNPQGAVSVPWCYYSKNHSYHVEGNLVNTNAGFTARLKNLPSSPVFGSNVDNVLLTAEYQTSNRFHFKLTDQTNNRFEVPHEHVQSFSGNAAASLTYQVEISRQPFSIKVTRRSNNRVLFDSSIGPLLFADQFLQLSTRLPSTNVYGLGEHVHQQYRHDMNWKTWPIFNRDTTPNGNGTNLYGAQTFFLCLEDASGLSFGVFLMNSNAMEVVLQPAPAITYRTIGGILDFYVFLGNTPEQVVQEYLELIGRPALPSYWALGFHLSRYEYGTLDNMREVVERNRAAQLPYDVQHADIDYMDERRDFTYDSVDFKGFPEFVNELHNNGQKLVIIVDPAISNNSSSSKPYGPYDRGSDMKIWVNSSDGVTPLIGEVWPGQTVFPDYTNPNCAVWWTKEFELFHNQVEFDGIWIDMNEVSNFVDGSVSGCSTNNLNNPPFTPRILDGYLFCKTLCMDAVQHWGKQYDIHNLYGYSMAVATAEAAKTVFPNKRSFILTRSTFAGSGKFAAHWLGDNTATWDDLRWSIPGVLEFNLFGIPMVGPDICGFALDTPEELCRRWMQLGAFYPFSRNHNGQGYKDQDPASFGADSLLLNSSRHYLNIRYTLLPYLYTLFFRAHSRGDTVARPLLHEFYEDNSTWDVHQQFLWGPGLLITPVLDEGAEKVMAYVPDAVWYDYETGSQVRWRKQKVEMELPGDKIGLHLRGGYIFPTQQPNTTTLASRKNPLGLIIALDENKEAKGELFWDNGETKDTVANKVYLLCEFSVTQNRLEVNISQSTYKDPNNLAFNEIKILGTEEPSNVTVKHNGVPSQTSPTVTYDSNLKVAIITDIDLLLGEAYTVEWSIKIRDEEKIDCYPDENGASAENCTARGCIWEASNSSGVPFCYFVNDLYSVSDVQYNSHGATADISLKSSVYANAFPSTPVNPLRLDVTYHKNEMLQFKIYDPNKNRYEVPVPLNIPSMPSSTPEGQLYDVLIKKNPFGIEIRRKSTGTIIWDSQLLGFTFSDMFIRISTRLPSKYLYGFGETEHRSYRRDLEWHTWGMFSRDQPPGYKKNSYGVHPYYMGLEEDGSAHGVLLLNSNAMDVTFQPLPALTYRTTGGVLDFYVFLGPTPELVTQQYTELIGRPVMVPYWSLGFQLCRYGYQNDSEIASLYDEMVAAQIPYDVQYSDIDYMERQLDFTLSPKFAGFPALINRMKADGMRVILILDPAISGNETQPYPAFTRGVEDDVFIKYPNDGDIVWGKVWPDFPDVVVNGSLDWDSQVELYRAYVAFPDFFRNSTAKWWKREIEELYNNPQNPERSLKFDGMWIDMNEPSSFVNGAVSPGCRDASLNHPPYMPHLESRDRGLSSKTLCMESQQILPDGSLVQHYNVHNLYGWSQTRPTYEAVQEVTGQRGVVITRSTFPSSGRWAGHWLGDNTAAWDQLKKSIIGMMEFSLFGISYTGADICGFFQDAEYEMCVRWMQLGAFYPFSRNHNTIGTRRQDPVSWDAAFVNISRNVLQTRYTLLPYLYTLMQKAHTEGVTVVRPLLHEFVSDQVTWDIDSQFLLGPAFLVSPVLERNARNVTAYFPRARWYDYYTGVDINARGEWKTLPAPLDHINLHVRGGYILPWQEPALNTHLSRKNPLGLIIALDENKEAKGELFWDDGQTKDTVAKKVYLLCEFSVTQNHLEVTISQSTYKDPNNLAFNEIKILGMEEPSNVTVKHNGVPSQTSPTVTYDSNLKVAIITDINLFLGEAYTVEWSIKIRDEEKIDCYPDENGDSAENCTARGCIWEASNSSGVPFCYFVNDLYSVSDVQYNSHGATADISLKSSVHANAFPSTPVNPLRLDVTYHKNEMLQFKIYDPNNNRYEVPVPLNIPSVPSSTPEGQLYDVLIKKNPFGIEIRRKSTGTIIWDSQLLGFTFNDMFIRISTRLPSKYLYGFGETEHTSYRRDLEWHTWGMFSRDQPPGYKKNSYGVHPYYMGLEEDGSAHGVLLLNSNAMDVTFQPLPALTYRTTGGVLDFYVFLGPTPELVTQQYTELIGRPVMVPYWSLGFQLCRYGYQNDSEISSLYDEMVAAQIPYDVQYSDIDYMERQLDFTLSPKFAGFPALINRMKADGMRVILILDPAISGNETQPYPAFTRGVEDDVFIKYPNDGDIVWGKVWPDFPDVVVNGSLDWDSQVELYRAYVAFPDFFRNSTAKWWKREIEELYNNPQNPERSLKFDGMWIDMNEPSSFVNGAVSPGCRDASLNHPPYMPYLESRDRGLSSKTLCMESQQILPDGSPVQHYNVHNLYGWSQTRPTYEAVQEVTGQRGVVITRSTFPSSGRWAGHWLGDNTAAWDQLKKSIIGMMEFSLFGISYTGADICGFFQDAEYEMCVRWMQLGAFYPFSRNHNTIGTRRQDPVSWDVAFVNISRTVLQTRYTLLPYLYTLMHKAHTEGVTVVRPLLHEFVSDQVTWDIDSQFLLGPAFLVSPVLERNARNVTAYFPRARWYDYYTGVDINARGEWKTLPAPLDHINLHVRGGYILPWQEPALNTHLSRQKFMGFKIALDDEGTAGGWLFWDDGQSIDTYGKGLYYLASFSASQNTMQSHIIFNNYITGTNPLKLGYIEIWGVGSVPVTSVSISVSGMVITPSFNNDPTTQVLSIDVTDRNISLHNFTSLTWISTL

What is called IC50 is the concentration that gives 50% inhibition. Higher therefore signals a need for much substance. `COc1ccccc1S(=O)(=O)Nc1nnc(-c2ccc([N+](=O)[O-])cc2)s1`: the IC50 in assay [1] stood at 2.4 µM.

One may read the inhibition as the relative decrease from the control value, in per cent. Read a high inhibition as a response far below the control. Take `CC(=O)Nc1ccc(O)c(/N=N/c2ccc(S(N)(=O)=O)cc2)c1`: the inhibition in assay [2] was found to be 93.6%. In assay [3], this compound came in with a half-inhibitory concentration (IC50) of 11 µM.

In the case of `CC(=O)Nc1ccc(O)c(/N=N/c2ccc(S(=O)(=O)Nc3ncccn3)cc2)c1`, the inhibition in assay [2] is 95.7%. In assay [3], this compound yielded an IC50 of 1.39 µM.

`O=S(=O)(NCCc1c[nH]c2ccccc12)c1cc(F)ccc1Cl`: half-maximal inhibition in assay [4] (IC50) was put at 1.6 µM.

The compound `CC(=O)Nc1ccc(O)c(/N=N/c2ccc(S(=O)(=O)Nc3nc(C)cc(C)n3)cc2)c1` returned an inhibition in assay [2] of 94.1%. Further, 5.13 µM corresponded to half-maximal inhibition in assay [3] (IC50).

The compound `CC(=O)Nc1ccc(O)c(/N=N/c2ccc(S(=O)(=O)NC(=N)N)cc2)c1` gave an inhibition in assay [2] of 91%. Besides, the half-inhibitory concentration (IC50) in assay [3] amounted to 96.5 µM.

Compound `CC(=O)Nc1ccc(O)c(/N=N/c2ccc(S(=O)(=O)Nc3ccc(Cl)nn3)cc2)c1` showed an inhibition in assay [2] of 94.2%. This compound returned an IC50 in assay [3] of 19.1 µM.

On to `C[C@H]1O[C@H](O[C@H]2[C@H](O)[C@@H](O)[C@@H](O[C@H]3[C@H](O)[C@@H](O)C(O)O[C@@H]3CO)O[C@@H]2CO)[C@H](O)[C@@H](O)[C@@H]1N[C@H]1C=C(CO)[C@@H](O)[C@H](O)[C@H]1O` (stereo partly specified) [ACARBOSE], for which the inhibition in assay [2] turned out to be 95.8%. Moreover, the 50% inhibitory concentration (IC50) in assay [3] stood at 1.24 µM.

As for `CC(=O)Nc1ccc(O)c(/N=N/c2ccc(S(=O)(=O)Nc3noc(C)c3C)cc2)c1`, in assay [2], the inhibition amounted to 95.6%. Further, the IC50 in assay [3] amounted to 2.95 µM.

Turning to `CC(=O)Nc1ccc(O)c(/N=N/c2ccc(S(=O)(=O)Nc3nccs3)cc2)c1`, the inhibition in assay [2] turned out to be 93.4%. Inhibition in assay [3] was half-maximal at 44.1 µM (IC50).

Take `O=[N+]([O-])c1ccc(-c2nnc(NS(=O)(=O)c3ccc(Cl)c(Cl)c3)s2)cc1`: the half-inhibitory concentration (IC50) in assay [5] is 5.5 µM.

In turn, `CC(=O)Nc1ccc(O)c(/N=N/c2ccc(S(=O)(=O)Nc3cc(C)on3)cc2)c1` gave an inhibition in assay [2] of 92.6%. The midpoint of inhibition in assay [3], the IC50, lay at 18.3 µM.
